Test results from patent US6703387B2, “Inhibitors of HPV E1 helicase enzyme” (Hoffmann-La Roche Inc., priority 2000, dated 2004).
Where a name gives a salt, the structure may show the parent alone.

Biological target: T1, HPV(11) E1 helicase enzyme (MBP fusion protein), ATPase activity (Human papillomavirus 11, UniProt P04014)
T1 construct: made in house; host or cells: SF9 insect cells, baculovirus expression system
Assay: E1 ATPase activity assay ([γ33P]ATP hydrolysis, charcoal separation)
Type: biochemical
Conditions: 20 μM ATP, 1 hour at 37° C., pH 7.0, read-out: Activity (IC50, concentration of test compound which inhibits enzyme activity by 50%)
Protocol: For assaying E1 ATPase activity the HPV E1 enzyme has been prepared and purified as follows:
The HPV(11) E1 used in this assay is expressed as a maltose binding protein (MBP) fusion protein from SF9 cells using a baculovirus expression system. Frozen pellets of these cells are thawed by adding the pellet directly into a buffer at 4 OC containing 50 mM Tris-HCl pH 7.5, 20 mM dithiothreitol (DTT), 1 mM EDTA, 600 mM NaCl, 20% glycerol and 3 “Complete” protease inhibitor tablets/50 ml (Boehringer Mannheim cat.no.1 697 498). The cell suspension is then sonicated for 3×10 seconds before centrifuging at 18000 rpm for 30 minutes to remove the cell debris. The clarified extract is then passed down a DE52 ion exchange column which is washed with a buffer containing 50 mM Tris-HCl pH 7.5, 2 mM DTT, 1 mM EDTA, 600 mM NaCl and 20% glycerol. The column flow through plus the first 10 mls of wash buffer are then passed down an amylose affinity column which binds MBP tagged proteins. This column is washed with 3 column bed volumes of the wash buffer before being eluted with wash buffer containing 10 mM maltose. The eluted protein peak containing purified HPV(11) E1 is then dialysed overnight against 2 L of buffer containing 20 mM Tris-HCl pH 7.5, 2 mM DTT, 20 mM NaCl and 20% glycerol. The dialyzed material is used in the assay.
E1 ATPase activity can be measured as follows:
The standard reaction contains 50 mM MOPs KOH pH 7.0, 500 μM MgCl2, 20 μM ATP, 50 mM NaCl, 40 μl of a suitably diluted enzyme extract and 10 μl of inhibitor in a final volume of 100 μl. The ATP contains 0.1 μCi [γ^33P]ATP per reaction. The enzyme diluent contains 50 mM MOPs KOH pH7.0 and 1 mg/ml BSA. The inhibitor is diluted to give a range of concentrations in neat DMSO. Reaction tubes are incubated for 1 hour at 37° C. (producing linear kinetics) after which the reaction is terminated by heat inactivation at 85° C. for 2 minutes. 500 μl 15% activated charcoal in PBS is then added to each reaction. The activated charcoal used is 100-400 mesh untreated powder (Sigma cat No C-5260); prior to use in the assay this is washed in PBS several times and allowed to settle out under gravity, any fine particles still in suspension being decanted off after each wash. The reactions are left on ice for 1 hour after which the charcoal is pelleted out by centrifugation at 14000 rpm for 10 minutes. The charcoal pellet contains unconverted [γ^33P]ATP, whilst any free inorganic ^33P, the reaction product, will remain in the supernatant. The amount of radioactivity present in 300 μl of supernatant is then measured by scintillation spectrophotometry.
The results can be calculated as follows:
The degree of inhibition at each inhibitor concentration is expressed as a percentage of the control reaction (100%) after subtracting a measured blank value, which represents the amount of free inorganic ^33P present in a reaction containing heat inactivated enzyme. An IC50 value (concentration of test compound which inhibits enzyme activity by 50%) is then calculated from a dose response curve of log10 inhibitor concentration against percentage of the control reaction.

T1 sequence (P04014 whole entry, the tested form may be a part): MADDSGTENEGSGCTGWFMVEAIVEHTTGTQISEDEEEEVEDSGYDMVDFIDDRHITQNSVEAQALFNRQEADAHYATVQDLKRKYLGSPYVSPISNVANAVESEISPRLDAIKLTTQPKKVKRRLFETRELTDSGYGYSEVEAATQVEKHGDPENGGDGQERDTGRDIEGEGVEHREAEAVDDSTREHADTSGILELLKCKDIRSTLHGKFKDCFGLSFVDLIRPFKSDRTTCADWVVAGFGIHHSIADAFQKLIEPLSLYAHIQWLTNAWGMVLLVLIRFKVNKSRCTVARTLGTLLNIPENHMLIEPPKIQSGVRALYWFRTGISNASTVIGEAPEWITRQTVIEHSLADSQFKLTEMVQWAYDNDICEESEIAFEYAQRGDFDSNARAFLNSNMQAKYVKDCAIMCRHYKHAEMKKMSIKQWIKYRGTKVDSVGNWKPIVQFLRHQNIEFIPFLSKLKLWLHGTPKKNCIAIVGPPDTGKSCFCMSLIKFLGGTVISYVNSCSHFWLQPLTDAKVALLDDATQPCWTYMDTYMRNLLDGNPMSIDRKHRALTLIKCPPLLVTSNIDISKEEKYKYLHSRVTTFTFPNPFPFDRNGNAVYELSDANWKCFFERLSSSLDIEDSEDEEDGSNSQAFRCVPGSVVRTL

Compared with `O=C(c1ccccc1)N1CCN=C(/C=C/c2ccc(Cl)c(Cl)c2)c2ccccc21` [Example 125, (E)-1-Benzoyl-5-(3,4-dichlorostyryl)-2,3-dihydro-1H-1,4-benzodiazepine hydrochloride], `O=C(O)c1cccc(CN2CCN=C(/C=C/c3ccc(Cl)c(Cl)c3)c3ccccc32)c1` [Example 133, (E)-3-[[5-(3,4-Dichlorostyryl)-2,3-dihydro-1H-14-benzodiazepin-1-yl]methyl]benzoic]acid hydrochloride] is 1.8-fold lower in IC50: 5.6 µM for the first, 3.1 µM for the second.

Going from `CN1CCN=C(/C=C/c2cnccc2-c2cccc(Br)c2)c2ccc(Br)cc21` [Example 42, (E)-8-Bromo-5-[2-[4-(3-bromophenyl)-3-pyridyl]vinyl]-2,3-dihydro-1-methyl-1H-1,4-benzodiazepine dihydrochloride] to `CN1CCN=C(/C=C/c2cnccc2-c2cccc(Br)c2)c2ccccc21` [Example 6, (E)-5-[2-[4-(3-Bromophenyl)-3-pyridyl]vinyl]-2,3-dihydro-1-methyl-1H-1,4-benzo-diazepine dihydrochloride], the IC50 rises from 2.4 µM to 4.2 µM (1.8-fold).

`CN1CCN=C(/C=C/c2ccccc2Sc2ccc(Cl)cc2)c2ccccc21` [Example 121, (E)-5-[2-(4-Chlorophenylthio)styryl]-2,3-dihydro-1-methyl-1H-1,4-benzodiazepine dihydrochloride] and `CN1CCN=C(/C=C/c2cccc(Oc3ccccc3)c2)c2ccccc21` [Example 3, (E)-2,3-Dihydro-1-methyl-5-(3-phenoxystyryl)-1H-1,4-benzodiazepine dihydrochloride] are within 1.5-fold of each other in IC50: 1.6 µM for the first, 2.4 µM for the second.

Going from `CC(C)N1CCN=C(/C=C/c2ccc(Cl)c(Cl)c2)c2ccccc21` [Example 123, (E)-5-(3,4-Dichlorostyryl)-2,3-dihydro-1-isopropyl-1H-1,4-benzodiazepine dihydrochloride] to `O=C(O)CN1CCN=C(/C=C/c2ccc(Cl)c(Cl)c2)c2ccccc21` [Example 137, (E)-5-(3,4-Dichlorostyryl)-2,3-dihydro-1H-1,4-benzodiazepine-1-acetic acid], the IC50 rises from 2 µM to 20 µM (10-fold).

First: COC(=O)c1ccc(CN2CCN=C(/C=C/c3ccc(Cl)c(Cl)c3)c3ccccc32)cc1 [Example 127, Methyl (E)4-[[5-(3,4-dichlorostyryl)-2,3-dihydro-1H-1,4-benzodiazepin-1-yl]methyl]benzoate dihydrochloride]
Second: O=C(O)c1ccc(CN2CCN=C(/C=C/c3ccc(Cl)c(Cl)c3)c3ccccc32)cc1 [Example 132, (E)-4-[[5-(3,4-dichlorostyryl)-2,3-dihydro-1H-1,4-benzodiazepin-1-yl]methyl]benzoic acid dihydrochloride]
The IC50 of the first is 2-fold lower: 2.2 µM for the first, 4.4 µM for the second.

Compared with `CN1CCN=C(/C=C/c2ccc(Cl)c(Cl)c2)c2cccnc21` [Example 29, (E)-5-(3,4-Dichlorostyryl)-2,3-dihydro-1-methyl-1H-pyrido[2,3-e][1,4]diazepine hydrochloride (1:3)], `CN1CCN=C(/C=C/c2ccc(Cl)c(Cl)c2)c2cc(NS(C)(=O)=O)ccc21` [Example 162, (E)-N-[5-(3,4-Dichlorostyryl)-2,3-dihydro-1-methyl-1H-1,4-benzodiazepin-7-yl]methanesulfonamide] is 2.9-fold higher in IC50: 3 µM for the first, 8.6 µM for the second. The first is the more potent here.

Going from `FC(F)(F)c1cccc2c1NCCN=C2/C=C/c1ccc(Cl)c(Cl)c1` [Example 38, (E)-5-(3,4-Dichlorostyryl)-9-(trifluoromethyl)-2,3-dihydro-1H-1,4-benzodiazepine dihydrochloride] to `CN1CCN=C(/C=C/c2ccc(Cl)c(Cl)c2)c2ccc(-c3cccs3)cc21` [Example 164, (E)-5-(3,4-Dichlorostyryl)-2,3-dihydro-1-methyl-8-(2-thienyl)-1H-1,4-benzodiazepine hydrochloride], the IC50 rises from 5.6 µM to 12 µM (2.1-fold). The first is the more potent here.

`Cc1cc(C)n(COc2cccc(/C=C/C3=NCCN(C)c4ccccc43)c2)n1` [Example 92, (E)-2,3-Dihydro-1-methyl-5-[3-[(3,5-dimethyl-1-pyrazolyl)methoxy]-styryl]-1H-1,4-benzodiazepine dihydrochloride] and `CCOC(=O)c1ncn2c1CN=C(/C=C/c1ccc(Cl)c(Cl)c1)c1ccccc1-2` [Example 139, Ethyl (E)-6-(3,4-dichlorostyryl)-4H-imidazo[1,5-a]benzodiazepine-3-carboxylate] are within 1.5-fold of each other in IC50: 19 µM for the first, 20 µM for the second.

`CN1CCN=C(/C=C/c2ccc(C#N)c(SCc3ccc(Cl)cc3)n2)c2ccc(Br)cc21` [Example 44, (E)-6-[2-(8-Bromo-2,3-dihydro-1-methyl-1H-1,4-benzodiazepin-5-yl)vinyl]-2-(4-chlorobenzylthio)-3-pyridinecarbonitrile dihydrochloride] gave an IC50 of 2.5 µM.
